Laboratory results: patent publication US20250319145A1, “EXTRACT WITH ANTI-INFLAMMATORY EFFECT” (Medizinische Universitat Innsbruck, priority 2021, published 2025)

How the values were obtained:
[1] = target: T1, IKKβ Kinase (Homo sapiens, UniProt O14920); assay: In vitro immunoprecipitation IKKβ kinase assay with IκBα as substrate (autoradiography); type: biochemical; details: 1.6, 2.8 and 6% vs DMSO control; FIG. 9
T1 construct: made in house; host or cells: HEK 293T cells (transient transfection, anti-HA immunoprecipitation)
T1 sequence (O14920 1-756): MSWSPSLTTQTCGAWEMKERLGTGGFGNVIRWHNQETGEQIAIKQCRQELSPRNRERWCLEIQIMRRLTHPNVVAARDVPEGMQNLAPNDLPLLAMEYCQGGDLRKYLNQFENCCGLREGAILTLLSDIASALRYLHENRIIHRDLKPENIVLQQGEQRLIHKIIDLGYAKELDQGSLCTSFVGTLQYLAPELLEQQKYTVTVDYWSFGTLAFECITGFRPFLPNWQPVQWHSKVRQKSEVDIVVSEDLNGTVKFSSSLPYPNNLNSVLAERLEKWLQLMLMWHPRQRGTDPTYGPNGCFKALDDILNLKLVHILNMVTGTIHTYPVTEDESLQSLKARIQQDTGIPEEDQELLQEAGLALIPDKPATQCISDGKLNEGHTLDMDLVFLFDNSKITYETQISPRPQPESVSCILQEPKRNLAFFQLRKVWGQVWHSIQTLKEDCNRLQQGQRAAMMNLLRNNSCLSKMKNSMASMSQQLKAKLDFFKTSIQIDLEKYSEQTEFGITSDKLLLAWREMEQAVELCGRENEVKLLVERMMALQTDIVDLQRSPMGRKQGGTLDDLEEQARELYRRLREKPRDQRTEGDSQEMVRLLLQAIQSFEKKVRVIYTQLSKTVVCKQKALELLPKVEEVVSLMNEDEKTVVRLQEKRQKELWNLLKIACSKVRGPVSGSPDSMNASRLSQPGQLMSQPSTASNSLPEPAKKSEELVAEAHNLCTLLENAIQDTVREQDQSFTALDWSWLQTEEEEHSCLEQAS
Experimental: The IKK complex subunit IKKβ is responsible for the phosphorylation of IκBα and it's targeting for degradation upon TNFα induction. Therefore, it has been investigated whether the extracts inhibit IKKβ. […] The kinase assay was based on quantifying the activity of the kinase IKKβ via autoradiography.
Specifically, HEK 293T cells were transfected with the HA-IKKβ construct. Cells were washed with ice-cold phosphate-buffered saline (PBS) and extracted with lysis buffer containing 50 mM HEPES (pH 7.5), 150 mM NaCl, 1% (vol/vol) Nonidet P-40, 2 mM EDTA, 50 mM sodium fluoride, 10 mM sodium pyrophosphate, 1 mM sodium orthovanadate, 50 μg of leupeptin (Boehringer Mannheim)/ml, 0.5% aprotinin (Sigma), 1 mM phenylmethylsulphonyl fluoride (Sigma), and 3 mM benzamidine (Sigma). 300 ng of total protein were immunoprecipitated with 2 μg of anti-HA antibodies and immune complexes were collected using protein A-Sepharose beads (Amersham Pharmacia Biotech). Immune complexes were washed three times with lysis buffer followed by a single wash with high salt buffer (500 mM NaCl) and kinase assay buffer (50 mM HEPES [pH 7.5], 10 mM MgCl2, 1 mM dithiothreitol, 10 mM β-glycerophosphate). […] Samples were subjected to 10% SDS-PAGE, and the amount of ^32P incorporated into the IKKβ and IκBα proteins was assessed by autoradiography (FIG. 4). […]

[2] = test system: reconstructed human epidermis (RHE)-models; assay: Cytokine release in reconstituted human epidermis model after TNFα; type: cell-based; details: 0.75 ng/ml TNFα, extract 10 μg/ml in medium, 24 h and 48 h
Experimental: The bioactivity of the extract of Chromochloris zofingiensis (2022C) was tested in human epidermis equivalents by measuring cytokine secretion in response to TNFα treatment.
The extract was tested in a physiological relevant set-up represented by reconstructed human epidermis (RHE)-models (FIG. 2), (W. Pixelproduction, epiCS—CellSystems GmbH. [Online]. Available: https://cellsystems.de/cells-and-media/c/epics (accessed: Oct. 2 2020)), purchased from Cell Systems. epiCS RHE models are validated for the classification of compounds according to the OECD test guideline 431. […]
The secretion of relevant pro-inflammatory cytokines of RHE-models (from Cell Systems Biotechnology), were quantified after induction with 0.75 ng/ml TNFα and treatment with DMSO, WFA or the extract of Chromochloris zofingiensis in a concentration of 10 μg/ml in DMSO.
After culturing the keratinocyte cell layer in cell culture inserts (0.6 cm^2) under submerged conditions, the tissues were lifted to the air-liquid interphase to induce differentiation, epithelial stratification and cornification. […] The cytokine release was evaluated 24 h and 48 h after the TNFα treatment. The secretion of the cytokines IL-1ra, RANTES, IL-1α, GM-CSF, TSLP, IP-10, IL-18, IL-6, IL-8, IL-10, MCP-1, IL-1β, TNFα and INF-β was measured. […]

For “diacylglyceryl-N,N,N-trimethylhomoserine [DGTS]”, the “direct inhibition of the IKKβ kinase” value [1] was “no inhibition”.

With `CC1=C(CO)C(=O)O[C@@H]([C@@H](C)[C@H]2CC[C@H]3[C@@H]4C[C@H]5O[C@]56[C@@H](O)C=CC(=O)[C@]6(C)[C@H]4CC[C@]23C)C1` [WFA, Withaferin A] the “release of IL-10, MCP-1, IP-10 and RANTES” value [2] was “substantial decrease”.
